Assay results: US20230117034A1, “PYRAZOLOTRIAZINES” (Bayer Aktiengesellschaft, priority 2019, published 2023)

Target: T1, CDK12 protein level in CAL-120 breast cancer cells (Homo sapiens, UniProt Q9NYV4)
T1 construct: endogenous in cells; host or cells: CAL-120 human breast cancer cells (DSMZ ACC 459)
Experiment: CDK12 protein level: Protein Simple (CDK12, CAL-120)
Format: cell-based
Conditions: CAL-120 cells, 18 h with compound, CDK12/HSP90 peak area ratio vs vehicle, median, read-out: CDK12 protein level in CAL-120 breast ca cells, DC50-[mol/l] (median)
Protocol: CAL-120 human breast cancer cells (DSMZ ACC 459) were seeded at 300,000 cells/well in 6-well plates containing 2 mL of growth medium (DMEM, 10% FCS, glutamine) and incubated for 24 h at 37° C. in an humidified incubator. Test compounds were added at various concentrations, control wells received solvent (DMSO), and the plates were incubated for another 18 h at 37° C. Cells were washed 2 times with PBS and lysed in 75 microL lysis buffer (MSD-Puffer (MSD, #R60TX-2), +1% 505S+PhosSTOP (Roche #04906837001)+complete mini (Roche #04693159001)) by scraping. The lysates were pushed 2 times through Qiashedders followed by centrifugation at 14,000 rpm for 30-50 sec. The supernatant was stored at −20° C. Proteins were separated by applying 0.4 microgramms of protein lysate to Protein Simple 66-440 kDa (Protein Simple #SM-S002) size assay columns on a PEGGY SUE or SALLY SUE equipment according to the supplier's manual. CDK12 and HSP90 (loading control) were detected using anti-human CDK12 antibody (Cell Signaling Technologies (CST) #11793) at 1:25 dilution and anti-human HSP90 antibody (CST #4877) at 1:5,000 dilution. CDK12 and HSP90 peak areas were determined using Protein Simple Compass software. Ratio of CDK12/HSP90 peak areas were calculated for each sample, and […] values (degrading concentration to achieve 50% reduction relative to vehicle treated control) were determined by means of a 4 parameter fit.

T1 sequence (Q9NYV4 whole entry): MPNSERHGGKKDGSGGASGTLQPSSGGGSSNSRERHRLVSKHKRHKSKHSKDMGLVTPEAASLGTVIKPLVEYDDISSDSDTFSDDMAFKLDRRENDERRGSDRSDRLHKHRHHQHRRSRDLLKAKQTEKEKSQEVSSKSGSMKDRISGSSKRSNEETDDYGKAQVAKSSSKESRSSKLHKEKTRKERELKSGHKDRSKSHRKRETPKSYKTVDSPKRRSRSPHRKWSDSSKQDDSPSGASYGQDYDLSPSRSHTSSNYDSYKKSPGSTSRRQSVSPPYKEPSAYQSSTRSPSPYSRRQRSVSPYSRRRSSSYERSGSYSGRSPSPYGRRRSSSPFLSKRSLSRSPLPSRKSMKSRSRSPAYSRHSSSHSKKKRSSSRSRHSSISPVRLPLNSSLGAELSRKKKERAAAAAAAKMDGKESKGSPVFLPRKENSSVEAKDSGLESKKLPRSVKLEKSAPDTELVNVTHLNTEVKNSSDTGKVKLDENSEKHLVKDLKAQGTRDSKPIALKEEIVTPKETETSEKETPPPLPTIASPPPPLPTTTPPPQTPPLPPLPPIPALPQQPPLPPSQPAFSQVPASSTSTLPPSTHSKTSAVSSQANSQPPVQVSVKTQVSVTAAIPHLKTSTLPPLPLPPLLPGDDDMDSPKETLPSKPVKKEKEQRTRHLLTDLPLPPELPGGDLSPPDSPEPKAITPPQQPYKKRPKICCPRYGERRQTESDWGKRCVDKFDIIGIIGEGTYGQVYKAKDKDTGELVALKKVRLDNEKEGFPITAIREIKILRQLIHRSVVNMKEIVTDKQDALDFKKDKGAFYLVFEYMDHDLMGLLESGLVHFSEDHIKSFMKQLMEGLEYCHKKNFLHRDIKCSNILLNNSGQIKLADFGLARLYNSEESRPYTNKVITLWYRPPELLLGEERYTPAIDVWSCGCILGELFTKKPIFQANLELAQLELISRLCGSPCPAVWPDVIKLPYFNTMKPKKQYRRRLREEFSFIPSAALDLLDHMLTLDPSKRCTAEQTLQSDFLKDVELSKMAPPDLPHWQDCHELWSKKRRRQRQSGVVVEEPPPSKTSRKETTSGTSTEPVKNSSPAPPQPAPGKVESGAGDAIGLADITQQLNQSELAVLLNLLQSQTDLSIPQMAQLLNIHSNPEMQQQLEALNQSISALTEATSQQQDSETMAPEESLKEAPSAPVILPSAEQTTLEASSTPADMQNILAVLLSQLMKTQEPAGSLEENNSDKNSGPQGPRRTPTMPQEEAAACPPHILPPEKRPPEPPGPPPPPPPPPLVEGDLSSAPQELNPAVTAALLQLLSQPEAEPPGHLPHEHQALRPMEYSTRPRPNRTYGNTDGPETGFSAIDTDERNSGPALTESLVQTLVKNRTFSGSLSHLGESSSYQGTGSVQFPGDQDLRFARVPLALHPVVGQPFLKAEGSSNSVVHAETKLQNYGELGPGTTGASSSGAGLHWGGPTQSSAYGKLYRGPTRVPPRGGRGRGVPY
T1 sequence (O75909 whole entry partner): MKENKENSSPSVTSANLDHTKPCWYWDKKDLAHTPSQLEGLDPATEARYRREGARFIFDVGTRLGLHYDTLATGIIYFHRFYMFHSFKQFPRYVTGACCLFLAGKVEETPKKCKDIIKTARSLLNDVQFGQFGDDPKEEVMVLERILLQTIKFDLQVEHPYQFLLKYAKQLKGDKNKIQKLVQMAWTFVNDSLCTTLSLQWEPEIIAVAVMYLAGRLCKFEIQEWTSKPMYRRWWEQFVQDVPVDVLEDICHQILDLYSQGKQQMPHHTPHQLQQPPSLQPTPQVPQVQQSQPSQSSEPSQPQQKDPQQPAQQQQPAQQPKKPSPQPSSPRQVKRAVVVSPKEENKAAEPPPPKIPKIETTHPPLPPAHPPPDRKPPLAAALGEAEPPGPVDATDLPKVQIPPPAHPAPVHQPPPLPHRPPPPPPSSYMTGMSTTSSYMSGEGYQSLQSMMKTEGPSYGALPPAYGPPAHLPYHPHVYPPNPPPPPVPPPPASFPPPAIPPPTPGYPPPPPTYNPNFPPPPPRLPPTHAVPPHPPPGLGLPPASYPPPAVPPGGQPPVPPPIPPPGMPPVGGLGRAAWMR

DC50 [nM]	SMILES
58.8	NCCc1cccc2[nH]c(CNc3nc(N4CCOCC4)nc4c(Br)cnn34)nc12 [Example 112, N-{[7-(2-aminoethyl)-1H-benzimidazol-2-yl]methyl}-8-bromo-2-(morpholin-4-yl)pyrazolo[1,5-a][1,3,5]triazin-4-amine]
1.08	CN1CCN(c2nc(NCc3nc4cc(F)ccc4[nH]3)n3ncc(C4CC4)c3n2)CC1 [Example 164, 8-cyclopropyl-N-[(5-fluoro-1H-benzimidazol-2-yl)methyl]-2-(4-methylpiperazin-1-yl)pyrazolo[1,5-a][1,3,5]triazin-4-amine]
